Results reported in patent US20230233576A1, “ECLITASERTIB FOR USE IN TREATING CONDITIONS INVOLVING SYSTEMIC HYPERINFLAMMATORY RESPONSE” (priority 2020, published 2023).

Test system: adult participants hospitalized for severe COVID-19
Experiment: Phase 1b severe COVID-19 study: adverse events and deaths
Type: in vivo, human
Source text: Safety evaluation was based on adverse events (Aes) including serious adverse events (SAEs) and adverse events of special interest (AESIs) (i.e., pregnancy, symptomatic overdose with IMP. Alanine aminotransferase [ALT] increase, and anemia), and treatment-emergent adverse events (TEAEs) leading to treatment discontinuation.
The primary focus of AE reporting was on treatment emergent adverse events (TEAEs). Treatment emergent adverse events were Aes that were not present at baseline or represented the exacerbation of a pre-existing condition during the on-treatment period (treatment-emergent period), defined as the time from the first administration of the IMP up to and including the day of last dose of study drug plus 5 days.
All adverse events were coded to a “preferred term (PT)”, “high-level term (HLT)”, “high-level group term (HLGT)”, and associated primary SOC using Medical Dictionary for Regulatory Activities (MedDRA) version 23.1.
The number and cumulative incidence rate of deaths [%] during the on-study period were computed by treatment group: number of deaths divided by the number of participants. Kaplan-Meier plot for time to death was presented by treatment group.

[1] = 600 mg (N = 47), Safety population

For `CN1C(=O)[C@@H](NC(=O)c2nnc(Cc3ccccc3)[nH]2)COc2cccnc21` [RIPK1 Inhibitor, (S)-5-benzyl-N-(5-methyl-4-oxo-2,3,4,5-tetrahydropyrido[3,2-b][1,4]oxazepin-3-yl)-4H-1,2,4-triazole-3-carboxamide], which “intensity of the majority of the TEAEs” value (600 mg) is on record?
Its value is “grade 2”.

And the “participants with PCSAs in hemoglobin and hematocrits considered as TEAEs of anemia” value (600 mg)?
Its value is 1 participants.

What about the “Participants with TEAE(s) (SAE): Any class” value [1] of the same molecule?
The value was 6 (12.8) n (%).

What about the “Participants with TEAE(s) (SAE): PT Bacterial infection” value [1] of the same molecule?
The value was 1 (2.1) n (%).

And the “Participants with TEAE(s) (SAE): PT Cardiac arrest” value [1]?
The value was 0 n (%).

What about the “Participants with TEAE(s) (SAE): PT Condition aggravated” value [1] of the same molecule?
The value was 2 (4.3) n (%).

And the “Participants with TEAE(s) (SAE): PT Peripheral artery thrombosis” value [1]?
The value was 1 (2.1) n (%).

And the “Participants with TEAE(s) (SAE): PT Pneumonia bacterial” value [1]?
Its value is 1 (2.1) n (%).

And the “Participants with TEAE(s) (SAE): PT Pseudomonas infection” value [1]?
The value was 1 (2.1) n (%).

What about the “Participants with TEAE(s) (SAE): PT Pulmonary embolism” value [1] of the same molecule?
The value was 1 (2.1) n (%).

And the “Participants with TEAE(s) (SAE): PT Respiratory failure” value [1]?
Its value is 0 n (%).

And the “Participants with TEAE(s) (SAE): SOC CARDIAC DISORDERS” value [1]?
Its value is 0 n (%).

What about the “Participants with TEAE(s) (SAE): SOC GENERAL DISORDERS AND ADMINISTRATION SITE CONDITIONS” value [1] of the same molecule?
The value was 2 (4.3) n (%).

What about the “Participants with TEAE(s) (SAE): SOC INFECTIONS AND INFESTATIONS” value [1] of the same molecule?
The value was 3 (6.4) n (%).

And the “Participants with TEAE(s) (SAE): SOC RESPIRATORY, THORACIC AND M[…]” value [1]?
The value was 1 (2.1) n (%).

What about the “Participants with TEAE(s) (SAE): SOC VASCULAR DISORDERS” value [1] of the same molecule?
Its value is 1 (2.1) n (%).

And the “TEAE, Any class: number of participants” value [1]?
The value was 24.

And the “TEAE, Any class: percentage of participants” value [1]?
Its value is “(51.1) %”.

What about the “TEAE, PT Alanine aminotransferase increased: number of participants” value [1] of the same molecule?
Its value is 6.

And the “TEAE, PT Alanine aminotransferase increased: percentage of participants” value [1]?
The value was “(12.8) %”.

And the “TEAE, PT Anaemia: number of participants” value [1]?
The value was 1.

And the “TEAE, PT Anaemia: percentage of participants” value [1]?
Its value is “(2.1) %”.

And the “TEAE, PT Anxiety disorder: number of participants” value [1]?
The value was 1.

What about the “TEAE, PT Anxiety disorder: percentage of participants” value [1] of the same molecule?
The value was “(2.1) %”.

And the “TEAE, PT Arterial injury: number of participants” value [1]?
The value was 1.

What about the “TEAE, PT Arterial injury: percentage of participants” value [1] of the same molecule?
Its value is “(2.1) %”.

And the “TEAE, PT Aspartate aminotransferase increased: number of participants” value [1]?
The value was 1.

What about the “TEAE, PT Aspartate aminotransferase increased: percentage of participants” value [1] of the same molecule?
Its value is “(2.1) %”.

What about the “TEAE, PT Back pain: number of participants” value [1] of the same molecule?
Its value is 1.

And the “TEAE, PT Back pain: percentage of participants” value [1]?
Its value is “(2.1) %”.

What about the “TEAE, PT Bacterial infection: number of participants” value [1] of the same molecule?
The value was 1.

And the “TEAE, PT Bacterial infection: percentage of participants” value [1]?
The value was “(2.1) %”.

What about the “TEAE, PT Blood pressure increased: number of participants” value [1] of the same molecule?
The value was 0.

What about the “TEAE, PT Cardiac arrest: number of participants” value [1] of the same molecule?
Its value is 0.

What about the “TEAE, PT Cerebral ischaemia: number of participants” value [1] of the same molecule?
Its value is 0.

And the “TEAE, PT Chest discomfort: number of participants” value [1]?
Its value is 1.

What about the “TEAE, PT Chest discomfort: percentage of participants” value [1] of the same molecule?
The value was “(2.1) %”.

What about the “TEAE, PT Cholelithiasis: number of participants” value [1] of the same molecule?
Its value is 0.

What about the “TEAE, PT Constipation: number of participants” value [1] of the same molecule?
The value was 1.

And the “TEAE, PT Constipation: percentage of participants” value [1]?
Its value is “(2.1) %”.

And the “TEAE, PT Dehydration: number of participants” value [1]?
The value was 1.

What about the “TEAE, PT Dehydration: percentage of participants” value [1] of the same molecule?
The value was “(2.1) %”.

What about the “TEAE, PT Diarrhoea: number of participants” value [1] of the same molecule?
Its value is 4.

And the “TEAE, PT Diarrhoea: percentage of participants” value [1]?
Its value is “(8.5) %”.

What about the “TEAE, PT Drug hypersensitivity: number of participants” value [1] of the same molecule?
The value was 1.

What about the “TEAE, PT Drug hypersensitivity: percentage of participants” value [1] of the same molecule?
Its value is “(2.1) %”.

What about the “TEAE, PT Dyspepsia: number of participants” value [1] of the same molecule?
The value was 0.

What about the “TEAE, PT Dyspnoea: number of participants” value [1] of the same molecule?
The value was 1.

And the “TEAE, PT Dyspnoea: percentage of participants” value [1]?
Its value is “(2.1) %”.

And the “TEAE, PT Emphysema: number of participants” value [1]?
Its value is 1.

And the “TEAE, PT Emphysema: percentage of participants” value [1]?
The value was “(2.1) %”.

What about the “TEAE, PT Encephalopathy: number of participants” value [1] of the same molecule?
The value was 0.

What about the “TEAE, PT Fatigue: number of participants” value [1] of the same molecule?
Its value is 1.

And the “TEAE, PT Fatigue: percentage of participants” value [1]?
Its value is “(2.1) %”.

What about the “TEAE, PT Flatulence: number of participants” value [1] of the same molecule?
Its value is 1.

What about the “TEAE, PT Flatulence: percentage of participants” value [1] of the same molecule?
Its value is “(2.1) %”.

What about the “TEAE, PT Furuncle: number of participants” value [1] of the same molecule?
Its value is 0.

What about the “TEAE, PT Gastritis: number of participants” value [1] of the same molecule?
The value was 0.

What about the “TEAE, PT Gastrooesophageal sphincter insufficiency: number of participants” value [1] of the same molecule?
The value was 0.

What about the “TEAE, PT Hyperglycaemia: number of participants” value [1] of the same molecule?
Its value is 1.

What about the “TEAE, PT Hyperglycaemia: percentage of participants” value [1] of the same molecule?
Its value is “(2.1) %”.

And the “TEAE, PT Hypertension: number of participants” value [1]?
The value was 1.

And the “TEAE, PT Hypertension: percentage of participants” value [1]?
The value was “(2.1) %”.

And the “TEAE, PT Hypoglycaemia: number of participants” value [1]?
The value was 1.

And the “TEAE, PT Hypoglycaemia: percentage of participants” value [1]?
The value was “(2.1) %”.

What about the “TEAE, PT Hypophosphataemia: number of participants” value [1] of the same molecule?
The value was 1.

And the “TEAE, PT Hypophosphataemia: percentage of participants” value [1]?
Its value is “(2.1) %”.

What about the “TEAE, PT Metabolic acidosis: number of participants” value [1] of the same molecule?
The value was 0.

And the “TEAE, PT Nausea: number of participants” value [1]?
Its value is 1.

And the “TEAE, PT Nausea: percentage of participants” value [1]?
The value was “(2.1) %”.

What about the “TEAE, PT Non-cardiac chest pain: number of participants” value [1] of the same molecule?
The value was 1.

What about the “TEAE, PT Non-cardiac chest pain: percentage of participants” value [1] of the same molecule?
The value was “(2.1) %”.

What about the “TEAE, PT Noninfective bronchitis: number of participants” value [1] of the same molecule?
The value was 0.

And the “TEAE, PT Oesophageal ulcer: number of participants” value [1]?
The value was 0.

And the “TEAE, PT Oesophagitis: number of participants” value [1]?
The value was 0.

What about the “TEAE, PT Oropharyngeal pain: number of participants” value [1] of the same molecule?
The value was 1.

What about the “TEAE, PT Oropharyngeal pain: percentage of participants” value [1] of the same molecule?
Its value is “(2.1) %”.

What about the “TEAE, PT Ovarian cyst: number of participants” value [1] of the same molecule?
The value was 0.

What about the “TEAE, PT Peripheral artery thrombosis: number of participants” value [1] of the same molecule?
Its value is 1.

And the “TEAE, PT Peripheral artery thrombosis: percentage of participants” value [1]?
The value was “(2.1) %”.

And the “TEAE, PT Pleural effusion: number of participants” value [1]?
The value was 0.

And the “TEAE, PT Pneumomediastinum: number of participants” value [1]?
The value was 0.

And the “TEAE, PT Pneumonia bacterial: number of participants” value [1]?
The value was 1.

And the “TEAE, PT Pneumonia bacterial: percentage of participants” value [1]?
The value was “(2.1) %”.

What about the “TEAE, PT Pneumonia: number of participants” value [1] of the same molecule?
Its value is 0.

What about the “TEAE, PT Pneumoperitoneum: number of participants” value [1] of the same molecule?
Its value is 0.

What about the “TEAE, PT Pneumothorax: number of participants” value [1] of the same molecule?
Its value is 0.

And the “TEAE, PT Procedural pneumothorax: number of participants” value [1]?
Its value is 0.

And the “TEAE, PT Pseudomembranous colitis: number of participants” value [1]?
The value was 1.

What about the “TEAE, PT Pseudomembranous colitis: percentage of participants” value [1] of the same molecule?
Its value is “(2.1) %”.

What about the “TEAE, PT Pseudomonas infection: number of participants” value [1] of the same molecule?
The value was 1.

What about the “TEAE, PT Pseudomonas infection: percentage of participants” value [1] of the same molecule?
The value was “(2.1) %”.

What about the “TEAE, PT Psychomotor hyperactivity: number of participants” value [1] of the same molecule?
Its value is 0.

What about the “TEAE, PT Pulmonary embolism: number of participants” value [1] of the same molecule?
The value was 1.
